The text below walks through data of patent US11357779B2 (G1 Therapeutics, Inc., priority 2018, dated 2022).

For data set [1] the following is noted: human, in vivo. As to the method:
Absolute neutrophil count (ANC) was determined from the blood sample obtained from subjects described in Example 1 on day 22 using standard methods.
Absolute neutrophil count (ANC) was also determined for blood samples obtained from subjects in all dosing cohorts (200 mg QD, 300 mg QD, 400 mg QD, 500 mg QD, 100 mg BID, and 150 mg BID dosage of Form B of Compound II).

A further data set can be described thus: clinical. The following applies: human, in vivo.

Where two headings read alike, the source gives them in different places.

For the molecule `CC(C)N1CCN(c2ccc(Nc3ncc4cc5n(c4n3)C3(CCCCC3)CNC5=O)nc2)CC1` [Compound I, 2′-((5-(4-isopropylpiperazin-1-yl)pyridin-2-yl)amino)-7′,8′-dihydro-6′H-spiro[cyclohexane-1,9′-pyrazino[1′,2′:1,5]pyrrolo[2,3-d]pyrimidin]-6′-one], the “(AUC0-24,ss)/ANC” value in data set [1] (200 mg) was found to be 0.10; in data set [1] (300 mg), 0.47; in data set [1] (400 mg) it was 0.15; in “clinical” (650 mg), 0.89. For the same molecule, the AUC(0-t) in the data set “clinical” (200 mg) turned out to be 229 ng·h/mL; in “clinical” (300 mg), 592 ng·h/mL; in “clinical” (400 mg), 278 ng·h/mL; in the data set “clinical” (500 mg), 607 ng·h/mL; in the data set “clinical” (650 mg), 956 ng·h/mL.
